Data on seven compounds can be found in patent US11013235B2 (priority 2015, dated 2021).

Structures are written as SMILES. Like-named read-outs stand apart in the source and are kept apart here.

What all share (type): in vivo
Experiment [1] concerns Alternaria solani. Nature of the experiment: Control of Alternaria solani disease in tomato (As-SI). The conditions noted are these: 1 μM spraying every 24 hours for one week, water control 68. In a few lines:
(§1)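 Plants were inoculated first, then sprayed with compound at 1 μM every 24 hours for one week, with water-sprayed plants as controls and fifty plants per treatment. Read-outs were plant mortality rate for Nocardia, percentage of leaves with symptoms for Alternaria, and lesion diameter for Botrytis.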

For experiment [2], the system named is Botrytis cinerea. Nature of the experiment: Control of Botrytis cinerea disease in Arabidopsis (Bc-At). The settings on record: 1 μM spraying every 24 hours for one week, water control 8.7. In a few lines:
as §1

The subject of experiment [3] is Rhizoctonia solani. Nature of the experiment: Control of Rhizoctonia solani disease in tobacco (Rs-Nt). The settings on record: 1 μM spraying every 24 hours for one week, water control 87.
Experiment [4] has as its system Nocardia sp. Briefly: Control of Nocardia sp disease in tobacco (N-Nt). The conditions noted are these: 1 μM spraying every 24 hours for one week, water control 58. In a few lines: as §1
For experiment [5], the system named is Botrytis cinerea. Nature of the experiment: Control of Botrytis cinerea disease in tomato (Bc-SI). The settings on record: 1 μM spraying every 24 hours for one week, water control 7.4. In a few lines:
as §1

In experiment [6] the test system is Botrytis cinerea. Briefly: Control of Botrytis cinerea disease in tobacco (Bc-Nt). The conditions noted are these: 1 μM spraying every 24 hours for one week, water control 6.7. In outline:
as §1

In experiment [7] the test system is Meloidogyne incognita. Briefly: Nematode control, nodules per plant: Meloidogyne incognita. The settings on record: 1 μM foliar application every 5 days, evaluation 35 days after, control 34. In outline: (§2)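 Ten plants per group were treated by spraying leaves only, every 5 days, with compound at 1 μM in water diluted from ethanol, and final nodule counts per plant were taken after 35 days.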

In experiment [8] the test system is Rhizoctonia solani. Nature of the experiment: Control of Rhizoctonia solani disease in tomato (Rs-SI). The conditions noted are these: 1 μM spraying every 24 hours for one week, water control 96.
Experiment [9] has as its system Pratylenchus coffeae. Nature of the experiment: Nematode control, nodules per plant: Pratylenchus coffeae. The settings on record: 1 μM foliar application every 5 days, evaluation 35 days after, control 42. In a few lines:
as §2

In experiment [10] the test system is Phytophthora parasitica. Nature of the experiment: Control of Phytophthora parasitica disease in tobacco (Pp-Nt). The conditions noted are these: 1 μM spraying every 24 hours for one week, water control 91.
For experiment [11], the system named is Radopholus similis. Nature of the experiment: Nematode control, nodules per plant: Radopholus similis. The conditions noted are these: 1 μM foliar application every 5 days, evaluation 35 days after, control 45. In a few lines:
as §2

The subject of experiment [12] is Candidatus 'Liberibacter asiaticus'. The settings on record: spraying every 15 days, 12 months after treatment, Citrus sinensis with HLB.

On to `Cc1nc(N2CCNCC2)ncc1C(=O)N1CC2CC(O)C(O)CC2C1` (stereo not shown) [IIIJ, 2-{[4-methyl-2-(piperazin-1-yl)pyrimidin-5-yl]carbonyl}-octahydro-1H-isoindole-5,6-diol], for which the “As-SI: percentage of leaves with the disease symptoms” value (from here on “As-SI: percentage of leaves”) in experiment [1] was 3%. In experiment [2], the “Bc-At: mean of the diameter of the lesion” value (“Bc-At: mean” below) was found to be 1.1 mm. Further, the “Rs-Nt: percentage of mortality” value in experiment [3] came to 4%. In [4], the “N-Nt: percentage of mortality” value was determined as 2%. For the same compound, the “Bc-SI: mean of the diameter of the lesion” value (shortened to “Bc-SI: mean”) in experiment [5] was found to be 1.6 mm. The “Bc-Nt: mean of the diameter of the lesion” value (“Bc-Nt: mean” for short) in experiment [6] came to 2.0 mm. The “Mi: number of nodules per plant” value in experiment [7] turned out to be 4. Further, the “Rs-SI: percentage of mortality” value in [8] stood at 2%. Further, the “Pc: number of nodules per plant” value in experiment [9] came out at 2. In experiment [10], the “Pp-Nt: percentage of mortality” value came to 1%. Besides, the “Rs: number of nodules per plant” value in experiment [11] is given as 12. The “Titers of the bacterium” value in [12] (0.001 μM) is recorded as 578 copies per reaction; in experiment [12] (0.01 μM), 0 copies per reaction; in experiment [12] (1 μM), 7 copies per reaction; in experiment [12] (5 μM), 578 copies per reaction; in [12] (10 μM), 7546 copies per reaction.

As for `CNC(=O)c1ccc2c(c1)N(C)C(CC(=O)NC(CO)CO)CO2` (stereo not shown) [VB, 3-{[(1,3-dihydroxypropan-2-yl)carbamoyl]methyl}-N,4-dimethyl-3,4-dihydro-2H-1,4-benzoxazine-6-carboxamide], in experiment [1], the “As-SI: percentage of leaves” value worked out at 8%. Also, the “Bc-At: mean” value in [2] was determined as 0.7 mm. Also, the “Rs-Nt: percentage of mortality” value in [3] is recorded as 0%. For the same compound, the “N-Nt: percentage of mortality” value in experiment [4] is listed as 1%. The “Bc-SI: mean” value in experiment [5] amounted to 1.2 mm. Further, in experiment [6], the “Bc-Nt: mean” value worked out at 0.9 mm. Besides, in experiment [7], the “Mi: number of nodules per plant” value is 0. Moreover, the “Rs-SI: percentage of mortality” value in experiment [8] is recorded as 2%. In addition, the “Pc: number of nodules per plant” value in experiment [9] is reported as 1. Besides, the “Pp-Nt: percentage of mortality” value in [10] is on record as 0%. In experiment [11], the “Rs: number of nodules per plant” value was 0. Moreover, the “Titers of the bacterium” value was 598 copies per reaction in experiment [12] (0.001 μM); 9 copies per reaction in experiment [12] (0.01 μM); 2 copies per reaction in [12] (1 μM); 98 copies per reaction in experiment [12] (5 μM); 9854 copies per reaction in experiment [12] (10 μM).

`Cc1c(CCC(=O)NCC(O)CO)c(=O)oc2cc3occ(C4CCCCC4)c3cc12` (stereo not shown) [IJ, 3-{6-cyclohexyl-4-methyl-2-oxo-2H-furo[3,2-g]chromen-3-yl}-N-(2,3-dihydroxypropyl)propanamide]: the “As-SI: percentage of leaves” value in experiment [1] is listed as 3%. In addition, the “Bc-At: mean” value in experiment [2] was determined as 1.5 mm. Also, the “Rs-Nt: percentage of mortality” value in experiment [3] is given as 4%. Moreover, the “N-Nt: percentage of mortality” value in [4] was 2%. In addition, the “Bc-SI: mean” value in experiment [5] turned out to be 2.5 mm. The “Bc-Nt: mean” value in [6] was determined as 1.5 mm. Also, the “Mi: number of nodules per plant” value in experiment [7] was found to be 4. Further, the “Rs-SI: percentage of mortality” value in experiment [8] is listed as 2%. For the same compound, the “Pc: number of nodules per plant” value in [9] stood at 24. Moreover, in experiment [10], the “Pp-Nt: percentage of mortality” value was found to be 1%. For the same compound, in experiment [11], the “Rs: number of nodules per plant” value is 18. Further, the “Titers of the bacterium” value in experiment [12] (0.001 μM) stood at 456 copies per reaction; in experiment [12] (0.01 μM), 0 copies per reaction; in experiment [12] (1 μM) it was 18 copies per reaction; in [12] (5 μM), 46 copies per reaction; in [12] (10 μM), 5840 copies per reaction.

On to `CN1c2cc(C(=O)NC3CCCCC3)ccc2OCC1CC(=O)NC(CO)CO` (stereo not shown) [VF, N-cyclohexyl-3-{[(1,3-dihydroxypropan-2-yl)carbamoyl]methyl}-4-methyl-3,4-dihydro-2H-1,4-benzoxazine-6-carboxamide], for which the “As-SI: percentage of leaves” value in [1] is recorded as 1%. The “Bc-At: mean” value in experiment [2] is recorded as 1.5 mm. In addition, the “Rs-Nt: percentage of mortality” value in experiment [3] is 2%. Also, the “N-Nt: percentage of mortality” value in experiment [4] amounted to 1%. Further, the “Bc-SI: mean” value in experiment [5] was 2.5 mm. Also, in experiment [6], the “Bc-Nt: mean” value is listed as 1.5 mm. For the same compound, the “Mi: number of nodules per plant” value in experiment [7] amounted to 2. The “Rs-SI: percentage of mortality” value in experiment [8] is recorded as 3%. In addition, the “Pc: number of nodules per plant” value in experiment [9] stood at 1. Further, the “Pp-Nt: percentage of mortality” value in experiment [10] is recorded as 1%. Further, the “Rs: number of nodules per plant” value in experiment [11] was 1. The “Titers of the bacterium” value in [12] (0.001 μM) was 985 copies per reaction; in experiment [12] (0.01 μM), 1 copies per reaction; in experiment [12] (1 μM) it was 0 copies per reaction; in experiment [12] (5 μM) it was 98 copies per reaction; in [12] (10 μM), 2365 copies per reaction.

Take `O=C(c1cnc(N2CCNCC2)nc1)N1CC2CC(O)C(O)CC2C1` (stereo not shown) [IIII, 2-{[2-(piperazin-1-yl)pyrimidin-5-yl]carbonyl}-octahydro-1H-isoindole-5,6-diol]: the “As-SI: percentage of leaves” value in experiment [1] was found to be 2%. In addition, the “Bc-At: mean” value in experiment [2] amounted to 1.2 mm. Also, the “Rs-Nt: percentage of mortality” value in experiment [3] turned out to be 3%. The “N-Nt: percentage of mortality” value in [4] came to 1%. The “Bc-SI: mean” value in experiment [5] is given as 0.8 mm. Further, the “Bc-Nt: mean” value in experiment [6] is reported as 0.3 mm. Moreover, the “Mi: number of nodules per plant” value in [7] is 3. The “Rs-SI: percentage of mortality” value in [8] is on record as 2%. In addition, the “Pc: number of nodules per plant” value in [9] came out at 12. For the same compound, in experiment [10], the “Pp-Nt: percentage of mortality” value is 2%. In experiment [11], the “Rs: number of nodules per plant” value is given as 2. For the same compound, the “Titers of the bacterium” value in experiment [12] (0.001 μM) amounted to 435 copies per reaction; in experiment [12] (0.01 μM), 9 copies per reaction; in experiment [12] (1 μM), 8 copies per reaction; in experiment [12] (5 μM), 45 copies per reaction; in experiment [12] (10 μM) it was 8654 copies per reaction.

In the case of `O=C(CC1COc2ccc(C(=O)Nn3cccc3)cc2N1)NC(CO)CO` (stereo not shown) [VK, 3-{[(1,3-dihydroxypropan-2-yl)carbamoyl]methyl}-N-(1H-pyrrol-1-yl)-3,4-dihydro-2H-1,4-benzoxazine-6-carboxamide], in experiment [1], the “As-SI: percentage of leaves” value is 7%. For the same compound, in experiment [2], the “Bc-At: mean” value was found to be 1.1 mm. In addition, the “Rs-Nt: percentage of mortality” value in experiment [3] came out at 0%. Further, the “N-Nt: percentage of mortality” value in experiment [4] was 0%. For the same compound, the “Bc-SI: mean” value in [5] was determined as 1.6 mm. The “Bc-Nt: mean” value in [6] is given as 2.0 mm. In addition, in experiment [7], the “Mi: number of nodules per plant” value is recorded as 0. Besides, the “Rs-SI: percentage of mortality” value in [8] is on record as 0%. The “Pc: number of nodules per plant” value in experiment [9] is reported as 0. For the same compound, the “Pp-Nt: percentage of mortality” value in experiment [10] is 0%. In addition, the “Rs: number of nodules per plant” value in [11] is reported as 0. Besides, the “Titers of the bacterium” value is listed as 435 copies per reaction in [12] (0.001 μM); 0 copies per reaction in [12] (0.01 μM); 0 copies per reaction in [12] (1 μM); 45 copies per reaction in [12] (5 μM); 2547 copies per reaction in experiment [12] (10 μM).

As for `CC(O)C(O)CN1CCC(Oc2ccc(C(=O)N3CCCC3)cc2)CC1` (stereo not shown) [IVJ, 1-(4-{4-[(pyrrolidin-1-yl)carbonyl]phenoxy}piperidin-1-yl)butane-2,3-diol], in [1], the “As-SI: percentage of leaves” value was found to be 1%. Besides, the “Bc-At: mean” value in [2] worked out at 1.1 mm. Moreover, the “Rs-Nt: percentage of mortality” value in [3] amounted to 2%. Also, the “N-Nt: percentage of mortality” value in experiment [4] is recorded as 1%. Also, in experiment [5], the “Bc-SI: mean” value turned out to be 1.6 mm. The “Bc-Nt: mean” value in [6] turned out to be 2.0 mm. Besides, in experiment [7], the “Mi: number of nodules per plant” value stood at 2. Moreover, in experiment [8], the “Rs-SI: percentage of mortality” value is 3%. Further, the “Pc: number of nodules per plant” value in experiment [9] came to 18. Moreover, in experiment [10], the “Pp-Nt: percentage of mortality” value was 1%. The “Rs: number of nodules per plant” value in experiment [11] was found to be 16. The “Titers of the bacterium” value in experiment [12] (0.001 μM) is reported as 435 copies per reaction; in [12] (0.01 μM), 7 copies per reaction; in experiment [12] (1 μM) it was 3 copies per reaction; in experiment [12] (5 μM), 45 copies per reaction; in experiment [12] (10 μM), 9547 copies per reaction.
